Measurements: PubChem BioAssay (NCI)
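These data come from cells grown in 96-well plates and exposed to compound for 48 hours at five concentrations. GI50 marks 50% less growth. At the TGI there is no net growth.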

Columns and labels:
Assay in all cases: NCI tumour cell line growth inhibition, 48 h
MCF7 breast = system: MCF7 breast
RXF 393 renal = system: RXF 393 renal
HOP-62 NSCLC = system: HOP-62 NSCLC
BT-549 breast = system: BT-549 breast
UO-31 renal = system: UO-31 renal
KM12 colon = system: KM12 colon
786-0 renal = system: 786-0 renal
K-562 leukemia = system: K-562 leukemia
HCT-15 colon = system: HCT-15 colon
TK-10 renal = system: TK-10 renal
UACC-257 melanoma = system: UACC-257 melanoma
HT29 colon = system: HT29 colon
M14 melanoma = system: M14 melanoma
OVCAR-5 ovarian = system: OVCAR-5 ovarian
LOX IMVI melanoma = system: LOX IMVI melanoma
SK-MEL-5 melanoma = system: SK-MEL-5 melanoma
NCI-H460 lung = system: NCI-H460 lung
HCT-116 colon = system: HCT-116 colon
SNB-75 CNS = system: SNB-75 CNS
SR leukemia = system: SR leukemia
A498 renal = system: A498 renal
SK-OV-3 ovarian = system: SK-OV-3 ovarian
UACC-62 melanoma = system: UACC-62 melanoma
NCI-H226 lung = system: NCI-H226 lung
MDA-MB-435 = system: MDA-MB-435
SF-295 CNS = system: SF-295 CNS
HOP-92 NSCLC = system: HOP-92 NSCLC
SF-268 CNS = system: SF-268 CNS
HS 578T breast = system: HS 578T breast
NCI/ADR-RES ovarian = system: NCI/ADR-RES ovarian
U251 CNS = system: U251 CNS
PC-3 prostate = system: PC-3 prostate
SK-MEL-2 melanoma = system: SK-MEL-2 melanoma
SK-MEL-28 melanoma = system: SK-MEL-28 melanoma
MALME-3M melanoma = system: MALME-3M melanoma
SF-539 CNS = system: SF-539 CNS
ACHN renal = system: ACHN renal
T-47D breast = system: T-47D breast
HCC-2998 colon = system: HCC-2998 colon
CCRF-CEM leukemia = system: CCRF-CEM leukemia
OVCAR-8 ovarian = system: OVCAR-8 ovarian
CAKI-1 renal = system: CAKI-1 renal
DU-145 prostate = system: DU-145 prostate
OVCAR-3 ovarian = system: OVCAR-3 ovarian
MOLT-4 leukemia = system: MOLT-4 leukemia
MDA-MB-231 breast = system: MDA-MB-231 breast
IGROV1 ovarian = system: IGROV1 ovarian
SN12C renal = system: SN12C renal
HL-60(TB) leukemia = system: HL-60(TB) leukemia
NCI-H522 lung = system: NCI-H522 lung
NCI-H23 lung = system: NCI-H23 lung
RPMI-8226 leukemia = system: RPMI-8226 leukemia
COLO 205 colon = system: COLO 205 colon
OVCAR-4 ovarian = system: OVCAR-4 ovarian
SW-620 colon = system: SW-620 colon
SNB-19 CNS = system: SNB-19 CNS

O=C(CN1CCN(c2cc3c(cc2F)c(=O)c(C(=O)O)cn3C2CC2)CC1)Nc1ccc(C(=O)/C=C/c2ccccc2)cc1
GI50 (MCF7 breast): 3.52 µM | TGI (MCF7 breast): > 100 µM | GI50 (RXF 393 renal): 2.5 µM | TGI (RXF 393 renal): > 100 µM | GI50 (HOP-62 NSCLC): 4.46 µM | TGI (HOP-62 NSCLC): > 100 µM | GI50 (BT-549 breast): 3.55 µM | TGI (BT-549 breast): > 100 µM | GI50 (UO-31 renal): 2.78 µM | TGI (UO-31 renal): 45.4 µM | GI50 (KM12 colon): 4.11 µM | TGI (KM12 colon): > 100 µM | GI50 (786-0 renal): 4.5 µM | TGI (786-0 renal): > 100 µM | GI50 (K-562 leukemia): 3.07 µM | TGI (K-562 leukemia): > 100 µM | GI50 (HCT-15 colon): 3.68 µM | TGI (HCT-15 colon): > 100 µM | GI50 (TK-10 renal): 4.19 µM | TGI (TK-10 renal): > 100 µM | GI50 (UACC-257 melanoma): 3.9 µM | TGI (UACC-257 melanoma): 90.8 µM | GI50 (HT29 colon): 2.99 µM | TGI (HT29 colon): 10.3 µM | GI50 (M14 melanoma): 5.22 µM | TGI (M14 melanoma): > 100 µM | GI50 (OVCAR-5 ovarian): 5.35 µM | TGI (OVCAR-5 ovarian): > 100 µM | GI50 (LOX IMVI melanoma): 2.32 µM | TGI (LOX IMVI melanoma): > 100 µM | GI50 (SK-MEL-5 melanoma): 2.74 µM | TGI (SK-MEL-5 melanoma): 13 µM | GI50 (NCI-H460 lung): 3.17 µM | TGI (NCI-H460 lung): > 100 µM | GI50 (HCT-116 colon): 0.659 µM | TGI (HCT-116 colon): 2.68 µM | GI50 (SNB-75 CNS): 3.22 µM | TGI (SNB-75 CNS): > 100 µM | GI50 (SR leukemia): 1.54 µM | TGI (SR leukemia): 6.1 µM | GI50 (A498 renal): 1.28 µM | TGI (A498 renal): 7.37 µM | GI50 (SK-OV-3 ovarian): 27.3 µM | TGI (SK-OV-3 ovarian): > 100 µM | GI50 (UACC-62 melanoma): 3.71 µM | TGI (UACC-62 melanoma): > 100 µM | GI50 (NCI-H226 lung): 6.83 µM | TGI (NCI-H226 lung): > 100 µM | GI50 (MDA-MB-435): 2.94 µM | TGI (MDA-MB-435): > 100 µM | GI50 (SF-295 CNS): 2.11 µM | TGI (SF-295 CNS): 6.25 µM | GI50 (HOP-92 NSCLC): 0.431 µM | TGI (HOP-92 NSCLC): 3.82 µM | GI50 (SF-268 CNS): 4.13 µM | TGI (SF-268 CNS): > 100 µM | GI50 (HS 578T breast): 4.99 µM | TGI (HS 578T breast): > 100 µM | GI50 (NCI/ADR-RES ovarian): 9.75 µM | TGI (NCI/ADR-RES ovarian): > 100 µM | GI50 (U251 CNS): 2.92 µM | TGI (U251 CNS): > 100 µM | GI50 (PC-3 prostate): 3.16 µM | TGI (PC-3 prostate): > 100 µM | GI50 (SK-MEL-2 melanoma): 2.94 µM | TGI (SK-MEL-2 melanoma): 11.3 µM | GI50 (SK-MEL-28 melanoma): 18.8 µM | TGI (SK-MEL-28 melanoma): > 100 µM | GI50 (MALME-3M melanoma): 2.89 µM | TGI (MALME-3M melanoma): 8.87 µM | GI50 (SF-539 CNS): 3.6 µM | TGI (SF-539 CNS): > 100 µM | GI50 (ACHN renal): 3.3 µM | TGI (ACHN renal): 31.9 µM | GI50 (T-47D breast): 6.66 µM | TGI (T-47D breast): > 100 µM | GI50 (HCC-2998 colon): 39.6 µM | TGI (HCC-2998 colon): > 100 µM | GI50 (CCRF-CEM leukemia): 4.09 µM | TGI (CCRF-CEM leukemia): > 100 µM | GI50 (OVCAR-8 ovarian): 3.07 µM | TGI (OVCAR-8 ovarian): > 100 µM | GI50 (CAKI-1 renal): 1.76 µM | TGI (CAKI-1 renal): 5.32 µM | GI50 (DU-145 prostate): 3.74 µM | TGI (DU-145 prostate): > 100 µM | GI50 (OVCAR-3 ovarian): 3.65 µM | TGI (OVCAR-3 ovarian): > 100 µM | GI50 (MOLT-4 leukemia): 5.13 µM | TGI (MOLT-4 leukemia): > 100 µM | GI50 (MDA-MB-231 breast): 1.84 µM | TGI (MDA-MB-231 breast): 5.13 µM | GI50 (IGROV1 ovarian): 3.67 µM | TGI (IGROV1 ovarian): > 100 µM | GI50 (SN12C renal): 3.02 µM | TGI (SN12C renal): > 100 µM | GI50 (HL-60(TB) leukemia): 9.44 µM | TGI (HL-60(TB) leukemia): > 100 µM | GI50 (NCI-H522 lung): 1.7 µM | TGI (NCI-H522 lung): 7.78 µM | GI50 (NCI-H23 lung): 2.48 µM | TGI (NCI-H23 lung): 14.3 µM | GI50 (RPMI-8226 leukemia): 2.52 µM | TGI (RPMI-8226 leukemia): 6.73 µM | GI50 (COLO 205 colon): 36.3 µM | TGI (COLO 205 colon): > 100 µM | GI50 (OVCAR-4 ovarian): 9.47 µM | TGI (OVCAR-4 ovarian): > 100 µM | GI50 (SW-620 colon): 3.8 µM | TGI (SW-620 colon): > 100 µM | GI50 (SNB-19 CNS): 3.05 µM | TGI (SNB-19 CNS): > 100 µM
